Data: patent US20250313563A1, “GLYCOGEN SYNTHASE KINASE 3 INHIBITORS AND USES THEREOF” (The Broad Institute, Inc., priority 2022, published 2025)
pIC50: −log10 of the molar value. Like-named read-outs stand apart in the source and are kept apart here.

How the values were obtained:
[1] = target: GSK3α (GST-full length GSK3α) (Homo sapiens (Human), UniProt P49840); experiment: GSK3α TR-FRET kinase assay; assay type: biochemical
In short: (§1)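 In this time-resolved FRET format, kinase reactions contained 200 nM biotinylated, S645-phosphorylated glycogen synthase 631-650 peptide and either isoform-specific ATP (2 μM GSK3b, 4 μM GSK3α) or 1 mM ATP. They were quenched with EDTA after 100 min at ambient temperature. Inhibition curves gave IC50 values.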

[2] = target: GSK3b (GST-full length GSK3b) (Homo sapiens (Human), UniProt P49841); experiment: GSK3b TR-FRET kinase assay; assay type: biochemical
In short: as §1

[3] = 1 nM GSK3α, 4 μM ATP, 30 minute preincubation, Table 16, read-out: GSK3-A TR-FRET BIOCHEMICAL (TR-FRET)
[4] = 1 nM GSK3b, 2 μM ATP, 30 minute preincubation, Table 16, read-out: GSK3-B TR-FRET BIOCHEMICAL (TR-FRET)
[5] = 1 nM GSK3α, 4 μM ATP, 30 minute preincubation, read-out: GSK3-A TR-FRET BIOCHEMICAL (TR-FRET), IC50
[6] = 1 nM GSK3b, 2 μM ATP, 30 minute preincubation, read-out: GSK3-B TR-FRET BIOCHEMICAL (TR-FRET), IC50
[7] = read-out: GSK3-A (TR-FRET 1 mM ATP), GMean, IC50, 1 mM ATP, geometric mean
[8] = read-out: GSK3-B (TR-FRET 1 mM ATP), GMean, IC50, 1 mM ATP, geometric mean

GSK3b (GST-full length GSK3b), sequence (P49841 whole entry): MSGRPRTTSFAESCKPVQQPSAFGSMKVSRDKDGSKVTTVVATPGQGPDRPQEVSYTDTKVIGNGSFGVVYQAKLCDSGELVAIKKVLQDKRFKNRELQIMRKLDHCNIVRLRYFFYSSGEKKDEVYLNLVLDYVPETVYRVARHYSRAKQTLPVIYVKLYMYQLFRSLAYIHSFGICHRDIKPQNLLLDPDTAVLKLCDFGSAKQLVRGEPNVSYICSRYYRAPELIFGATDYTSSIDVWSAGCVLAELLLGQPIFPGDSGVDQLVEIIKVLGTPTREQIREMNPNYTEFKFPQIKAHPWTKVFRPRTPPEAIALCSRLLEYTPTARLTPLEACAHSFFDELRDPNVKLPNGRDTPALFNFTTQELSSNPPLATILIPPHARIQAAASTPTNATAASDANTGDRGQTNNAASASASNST
GSK3α (GST-full length GSK3α), sequence (P49840 whole entry, canonical isoform): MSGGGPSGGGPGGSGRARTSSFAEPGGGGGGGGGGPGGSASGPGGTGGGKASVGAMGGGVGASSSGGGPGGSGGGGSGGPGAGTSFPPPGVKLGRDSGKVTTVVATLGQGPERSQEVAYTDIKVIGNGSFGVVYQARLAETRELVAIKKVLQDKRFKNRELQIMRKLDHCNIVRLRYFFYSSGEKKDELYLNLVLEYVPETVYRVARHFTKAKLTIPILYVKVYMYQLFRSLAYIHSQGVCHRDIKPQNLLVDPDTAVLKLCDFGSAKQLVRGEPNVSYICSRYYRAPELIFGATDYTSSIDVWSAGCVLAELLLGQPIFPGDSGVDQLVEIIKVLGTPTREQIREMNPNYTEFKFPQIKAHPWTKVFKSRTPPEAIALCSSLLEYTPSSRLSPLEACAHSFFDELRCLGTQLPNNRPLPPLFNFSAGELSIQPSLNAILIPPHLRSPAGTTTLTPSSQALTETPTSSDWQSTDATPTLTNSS

Row | pIC50 [1, 3] | pIC50 [2, 4] | pIC50 [1, 7] | pIC50 [2, 8] | further results | SMILES
1 | ≥ 7.00 | 6.00 to 7.00 |  |  |  | CC[C@]1(c2cccc(N(C)c3ccc(C(F)(F)F)nc3)c2)C2=C(CC(C)(C)CC2=O)Nc2n[nH]cc21 [Compound 945474]
2 |  |  |  |  | pIC50 ([1]; 1 nM GSK3α, 4 μM ATP, 30 minute preincubation, Table 16, read-out: GSK3-A TR-FRET BIOCHEMICAL (TR-FRET), IC50): 5.30 to 6.00; pIC50 ([2]; 1 nM GSK3b, 2 μM ATP, 30 minute preincubation, Table 16, read-out: GSK3-B TR-FRET BIOCHEMICAL (TR-FRET), IC50): 5.30 to 6.00 | CC1(C)CC(=O)C2=C(C1)Nc1n[nH]cc1C21CN(c2ccccn2)C1 [Compound 945477]
3 | 6.00 to 7.00 | 6.00 to 7.00 |  |  |  | CC1(C)CC(=O)C2=C(C1)Nc1n[nH]cc1C21CN(c2ccc(C(F)(F)F)cc2)C1 [Compound 945478]
4 |  |  |  |  | pIC50 [1, 5]: 5.30 to 6.00; pIC50 [2, 6]: < 5.30 | CC[C@@]1(c2cccc(-c3cn(C)nc3C)c2)C2=C(CC(C)(C)NC2=O)Nc2n[nH]cc21 [Compound 945480]
5 | ≥ 7.00 | ≥ 7.00 | ≥ 7.00 | 6.00 to 7.00 |  | CCC1(c2cccc(-c3ccncc3OC)c2)C2=C(CC(C)(C)CC2=O)Nc2n[nH]cc21 (stereo not drawn) [Compound 945481]
6 | 6.00 to 7.00 | 6.00 to 7.00 |  |  |  | CC1(C)CC(=O)C2=C(C1)Nc1n[nH]cc1[C@]21CCCN(S(=O)(=O)Cc2ccccc2)CC1 [Compound 945483]
7 | 5.30 to 6.00 | < 5.30 |  |  |  | CC[C@@]1(c2cccc(-c3ccnc(C)c3)c2)C2=C(CC(C)(C)[C@H](F)C2=O)Nc2n[nH]cc21 [Compound 945486]
8 | ≥ 7.00 | ≥ 7.00 | ≥ 7.00 | 6.00 to 7.00 |  | CCC1(c2cccc(-c3ccncc3C)c2)C2=C(CC(C)(C)CC2=O)Nc2n[nH]c(C(F)(F)F)c21 (stereo not drawn) [Compound 945527]
9 | ≥ 7.00 | ≥ 7.00 | ≥ 7.00 | 6.00 to 7.00 |  | CCC1(c2cccc(-c3ccncc3F)c2)C2=C(CC(C)(C)CC2=O)Nc2n[nH]c(C(F)(F)F)c21 (stereo not drawn) [Compound 945528]
10 | ≥ 7.00 | ≥ 7.00 | ≥ 7.00 | 6.00 to 7.00 |  | CCC1(c2cccc(-c3ccnn3C)c2)C2=C(CC(C)(C)CC2=O)Nc2n[nH]c(C(F)(F)F)c21 (stereo not drawn) [Compound 945531]
11 | ≥ 7.00 | ≥ 7.00 | ≥ 7.00 | 6.00 to 7.00 |  | CCC1(c2cccc(-c3cc(C)nn3C)c2)C2=C(CC(C)(C)CC2=O)Nc2n[nH]c(C(F)(F)F)c21 (stereo not drawn) [Compound 945532]
12 | ≥ 7.00 | ≥ 7.00 | 6.00 to 7.00 | 5.30 to 6.00 |  | CCC1(c2cccc(-c3cnn4c3CCCC4)c2)C2=C(CC(C)(C)CC2=O)Nc2n[nH]cc21 (stereo not drawn) [Compound 945543]
13 | 6.00 to 7.00 | < 5.30 |  |  |  | CCC1(c2cccc(-c3cnn4c3CCCC4)c2)C2=C(CC(C)(C)CC2=O)Nc2n[nH]cc21 (stereo not drawn) [Compound 945544]
14 | 5.30 to 6.00 | < 5.30 |  |  |  | CC[C@@]1(c2cccc(-c3cn(C)nc3C)c2)C2=C(CC(C)(C)CC2=O)Nc2n[nH]cc21 [Compound 945545]
15 | ≥ 7.00 | ≥ 7.00 | ≥ 7.00 | 6.00 to 7.00 |  | CC[C@]1(c2cccc(-c3cn(C)nc3C)c2)C2=C(CC(C)(C)CC2=O)Nc2n[nH]cc21 [Compound 945546]
16 | 5.30 to 6.00 | < 5.30 |  |  |  | CC1(C)CC(=O)C2=C(C1)Nc1n[nH]cc1[C@@]21CCCc2c(-c3ccncc3)cccc21 [Compound 945547]
17 | ≥ 7.00 | ≥ 7.00 |  |  |  | CC1(C)CC(=O)C2=C(C1)Nc1n[nH]cc1[C@]21CCCc2c(-c3ccncc3)cccc21 [Compound 945548]
18 | ≥ 7.00 | ≥ 7.00 |  |  |  | Cc1cc(-c2cccc3c2CCC[C@]32C3=C(CC(C)(C)CC3=O)Nc3n[nH]cc32)ccn1 [Compound 945549]
19 | 6.00 to 7.00 | < 5.30 |  |  |  | Cc1cc(-c2cccc3c2CCC[C@@]32C3=C(CC(C)(C)CC3=O)Nc3n[nH]cc32)ccn1 [Compound 945550]
20 | ≥ 7.00 | ≥ 7.00 |  |  |  | Cn1nccc1-c1cccc2c1CCC[C@]21C2=C(CC(C)(C)CC2=O)Nc2n[nH]cc21 [Compound 945551]
21 | 6.00 to 7.00 | < 5.30 |  |  |  | Cn1nccc1-c1cccc2c1CCC[C@@]21C2=C(CC(C)(C)CC2=O)Nc2n[nH]cc21 [Compound 945552]
22 |  |  |  |  | pIC50 [1, 5]: ≥ 7.00; pIC50 [2, 6]: ≥ 7.00 | CCC1(c2cccc(-c3c(C)nn(C)c3C)c2)C2=C(CC(C)(C)NC2=O)Nc2n[nH]c(C)c21 (stereo not drawn) [Compound 945598]
23 | 6.00 to 7.00 | 5.30 to 6.00 |  |  |  | CCc1cc(N(C)c2cccc(C3(CC)C4=C(CC(C)(C)CC4=O)Nc4n[nH]cc43)c2)ccn1 (stereo not drawn) [Compound 945600]
